Test results reported in a melting point compilation (Tetko et al.; mined from patent text by program, amines drawn as free bases though some values may be those of a salt).

| melting point [°C] | Structure (SMILES) |
| --- | --- |
| 109 to 110 | N[C@@H](Cc1ccc(CC(F)(F)C(F)(F)F)cc1)[C@H](O)c1cccc(Cl)c1 (racemic) |
| 213 to 215 | CNC(=O)NC(Cc1c[nH]c2ccccc12)C(=O)NCc1cc(C(F)(F)F)cc(C(F)(F)F)c1 (stereo not drawn) |
| 124 to 125 | Cc1nc(C)c(Cl)c(NCc2nccc(SCCCSCc3ccncc3)c2C)n1 |
| 138 | CC1=C(C(=O)OC(C)C)C(c2cccc([N+](=O)[O-])c2)N(C(=O)OC(C)C)C(=S)N1 (stereo not drawn) |
| 153 to 154 | CC(=O)c1ccc2cc(N3CCN(C(=O)OC(C)(C)C)CC3)ccc2c1 |
| 144 to 145 | Cc1cc(C2OC(=O)NC2=O)c(C)o1 (stereo not drawn) |
| 83 | CC(=O)OCCc1ccc(NC(=O)CCCCl)cc1 |
| 78 | CC(C)(C)C(=Cc1ccc(Cl)cc1Cl)Cn1cncn1 |
| 224 | Clc1cc(N2CCC(N3CCN(c4cccc5[nH]ccc45)CC3)CC2)c2ncccc2c1 |
| 96.5 to 97 | COc1ccc(Nc2ccc(O)cc2)c(CO)c1 |
| 74 to 75 | CCCc1c(O)c(C(C)=O)c(C)c2c1OC(C)(C)CC2C (stereo not drawn) |
| 292 | COc1ccc(Cn2c(=O)n([C@H]3CC[C@H](O)CC3)c3ccc(C(N)=O)cc32)cc1Cl |
| 218 to 220 | Cn1cc(-c2cccc(N3CCc4c(cc5n4CCCC5)C3=O)c2CO)nc(Nc2ccc3c(c2)CNCC3)c1=O |
| 108 | CCOC(=O)N1CCN(c2ccc(-n3cnn(C(C)(C)C(O)c4ccc(Cl)cc4)c3=O)cc2)CC1 (stereo not drawn) |
| 103 to 105 | CS(=O)(=O)c1ccc(-c2cnn(-c3cccc(C(F)(F)F)c3)c(=O)c2-c2ccc(Cl)cc2)cc1 |
| 140 to 145 | Cc1cc(SC2=C(O)CC(CCc3ccc(O)cc3)(CCc3ccc(O)cc3)OC2=O)c(C(C)(C)C)cc1N |
| 207 to 208 | O=C(O)c1cc2cc(Cl)ccc2nn1 |
| 236 to 238 | O=C(O)COc1ccc2cc(-c3cnc(Cc4ccccc4)o3)ccc2c1 |
| 225 to 227 | CN(Cc1cc2ccccc2n1C)C(=O)/C=C/c1ccc(NC(=O)CCC(N)=O)nc1 |
| 69 to 74 | COc1ccc2c(c1)CCC1C3CCC(=O)C3(C)CCC21O (stereo not drawn) |
| 265 to 267 | O=C1C(=O)c2ccccc2C2=C1SCC1(CCN(C(=O)c3cn4c5c(cccc35)CCC4)CC1)O2 |
| 96 to 97 | C=C(C)OC(=O)N1C(=O)C(C)N(C(=O)OC(=C)C)c2ccncc21 (racemic) |
| 195 to 197 | O=C(O)C(=O)Nc1coc2ccccc2c1=O |
| 205 to 208 | CN(C)Cc1ccccc1Oc1cccc(CC(=O)O)c1 |

| melting point [°C] | Structure (SMILES) |
| --- | --- |
| 106 to 108 | COC(=O)CCC1(CCC(=O)OC)c2cc(I)ccc2-c2ccc(I)cc21 |
| 109 to 112 | CCOC(=O)CSc1nc(Cl)cc(Nc2ccc(Cl)cc2)n1 |
| 245 to 247 | CCOC(=O)c1[nH]c2cc(Cl)cc(Cl)c2c1NS(=O)(=O)c1ccccc1 |
| 158 to 160 | CC(=O)OC1CCC2(C)C(=CCC3C2CCC2(C)C(n4ccnn4)=CCC32)C1 (stereo not drawn) |
| 222 to 226 | CC(=O)OC1(C(C)=O)CCC2C3C(OS(C)(=O)=O)C(Cl)C4=CC(=O)OCC4(C)C3CCC21C (stereo not drawn) |
| 135 to 136 | CCCOc1ccccc1C(=O)Nc1ccncc1C(N)=O |
| 159 to 163 | CC(C)[C@H](NC(=O)OCc1ccc2ccccc2n1)C(=O)N[C@@H](Cc1ccccc1)[C@@H](O)C[C@H](Cc1ccccc1)NC(=O)OCc1cccnc1 |
| 116 to 117 | CC(C(=O)O)c1ccc(-n2cc(Br)cn2)c(Cl)c1 (stereo not drawn) |
| 93 to 95 | OCc1cc(-c2ccc(Cl)cc2)on1 |
| 179 | c1ccc(Oc2ccc3[nH]c4c(c3c2)CNCC4)cc1 |
| 193 to 196 | COc1ccc2c(c1)c(CC(=O)O)c(C)n2C(=O)c1c(Cl)cc(Cl)cc1Cl |
| 191 to 192 | CC(C)CC(NC(=O)C(Cc1c[nH]cn1)NC(=O)C(Cc1cccc2ccccc12)NC(=O)OCc1ccccc1)C(O)CC(=O)O (stereo not drawn) |
| 102 to 104 | O=S(c1ccc(C=Cc2nc(CCl)co2)cc1)C(F)(F)F (stereo not drawn) |
| 86.5 to 87.5 | Cc1cc(C(=O)OC(C)(C)C)cc(C(=O)OC(C)(C)C)c1 |
| 103 to 104 | CCn1nc(C(C)(F)F)nc1Cc1ccc(-c2ccccc2-c2nnn[nH]2)nc1 |
| 171 to 172 | CCCc1c(OCCCOc2ccc(C(=O)O)cc2Cl)ccc(C(C)=O)c1O |
| 106 to 108 | CCOC(=O)Cc1c(C)nc(-c2ccccc2)nc1-c1cccc([N+](=O)[O-])c1 |
| 102 to 105 | COc1ccc2c(c1CCc1ccccc1)CCCC2=O |
| 153 to 154 | Clc1nc(Cl)nc(N2CC3CCC(CC3)C2)n1 |
| 221 | CS(=O)(=O)c1cc(N)c([N+](=O)[O-])cc1N |
| 112 to 113 | CCOc1ccc(-c2nc(-c3ccc(OS(=O)(=O)C(F)(F)F)c(C(=O)OC)c3)cs2)cc1OCC |
| 143 to 151 | O=CNc1nc(C(=NOCC(=O)OC(c2ccccc2)c2ccccc2)C(=O)O)cs1 |
| 235 to 237 | C#CCN1C(=O)c2cccc3cccc(c23)C1=O |
| 244 | CC(NC(=O)Cc1cc(F)cc(F)c1)C(=O)NC1C(=O)NC(c2ccccc2)c2ccccc21 (stereo not drawn) |

| melting point [°C] | Structure (SMILES) |
| --- | --- |
| 108 to 109 | CCCc1c(OCCCCCCc2ccc(CCCCC(=O)O)c(CCC(=O)O)c2)ccc2c1OCCC2=O |
| 264 to 265 | COc1cc(OCCNC(C)=O)cc(-c2nc3cc(OC)cc(OC)c3c(=O)[nH]2)c1 |
| 156 to 158 | COc1ccc([N+](=O)[O-])c(Nc2cccc(O)c2)n1 |
| 110 to 111 | Cc1cc(Cl)c2cc(F)c(OCc3ccccc3)cc2n1 |
| 128 to 131 | Cc1cc(N2CCN(Cc3ccc(F)cc3)C2=O)sc1C(=O)NCc1cccs1 |
| 134 | CCOC(=O)C1=NN(C(=O)c2ccccc2)C(C(=O)OCC)=NN1C(=O)c1ccccc1 |
| 189 | Cc1cc(C#N)cc(C(=O)Nc2ccc(F)cc2)n1 |
| 126 to 127 | COC1=C(OC)C(=O)NC1=O |
| 131 to 133 | CCCC1(CCC(C)=O)Cc2cc(CCC(=O)O)c(Cl)c(Cl)c2C1=O (stereo not drawn) |
| 75 to 77 | O=C(O)CCCCCCNS(=O)(=O)c1ccccc1 |
| 189 to 190 | COc1ncccc1OCC1(c2onc(-c3ccc(O)cc3)c2-c2ccccc2)CC1 |
| 226 to 228 | CCCCn1cc(C(=O)OCC)c(=O)c2oc3ccc(Cl)cc3c(=O)c21 |
| 129 | CC(C)Nc1cccnc1N1CCN(C(=O)c2ccc(C(=O)N3CCN(CCCO)CC3)cc2)CC1 |
| 217 to 218 | COc1cc(C=CC=C2SC(=O)NC2=O)cc(OC)c1OCc1ccccc1 |
| 145 to 148 | NCC1CCCC(CNc2ncc3ncnc(Nc4ccc(F)c(Cl)c4)c3n2)C1 (stereo not drawn) |
| 195 to 196 | Cc1cc(C(=O)O)ccc1Sc1ccc2c(c1)C(C)(C)CCC2(C)C |
| 205 to 207 | O=C(O)c1ccccc1OCCOc1cccc2ccccc12 |
| 75 | Cc1ccccc1-n1cnnc1C(F)(F)F |
| 115 to 116 | CCOC(=O)C1=Cc2cc(Cl)cc(C#N)c2OC1C(F)(F)F (stereo not drawn) |
| 175 to 178 | CCOC(=O)c1cn2c3c(c(-c4cc(C)nc(C)c4)c(F)c(SCc4ccccc4)c3c1=O)OC[C@@H]2C |
| 148 to 150 | COc1nc2ccccc2nc1NC(=O)N1CCN(c2cccc(Br)c2)CC1 |
| > 300 | Nc1nc2ccccc2c2c1nc1n2OCC1 |
| 295 to 296 | CC(=O)Nc1ccc2c(c1)-n1cc(C(=O)O)nc1CO2 |
| 94 to 95 | CCCc1c(OCC(O)COc2cc(N)c(C)cc2Cl)ccc(C(C)=O)c1O (stereo not drawn) |

| melting point [°C] | Structure (SMILES) |
| --- | --- |
| 124 to 126 | CCCc1nn(C)c2c(=O)n(CCCNc3ccc(OC(C)(C)C(=O)O)cc3)c(CC)nc12 |
| 100 to 102 | CC(C)(C)OP(=O)(CO)OC(C)(C)C |
| 148 to 150 | NC(=O)c1cn(C(CO)COc2ccccc2)cn1 (stereo not drawn) |
| 125 to 128 | CC1=C(C(=O)OCC2CCN(Cc3ccccc3)C2)C(c2cccc([N+](=O)[O-])c2)c2c(ccnc2OC(C)C)N1 (stereo not drawn) |
| 121 to 124 | CC(C)c1ccc(C(=O)CCc2ccccc2)c(C(C)C)c1OS(N)(=O)=O |
| 152 to 153 | COc1cc(Nc2nccc(-c3ccc(NCCCN)nc3)n2)cc(OC)c1OC |
| 212 | CC(c1ccc(NC=O)c(N)c1)n1ccnc1 (stereo not drawn) |
| 56 to 58 | O=C(C(=Cc1cccc(C(F)(F)F)c1)C(=O)C1CC1)C1CC1 |
| 146 to 148 | CC(C)(C)NC(=O)OC1SCN(c2ccccc2)C1=O (stereo not drawn) |
| 161 to 162 | CCOc1ccc([C@@H]2CCNC(=O)[C@H]2c2ccccc2)cc1 (relative stereo) |
| 260 to 264 | CC1(C)C(=O)NC(=O)c2cc(NC(N)=O)ccc21 |
| 82 to 83 | CC(=O)NCCCc1c(Cl)ccc2occc12 |
| 156 | O=C(NCCc1ccccc1)c1ccccc1-c1ccccc1CN1C(=O)c2ccccc2C1=O |
| 236 | O=C(O)CN1CCN2C(=O)N(c3cc(Cl)cc(Cl)c3)C(=O)C2(Cc2ccc(Br)cc2)C1 (stereo not drawn) |
| 41 to 47 | CCOC(=O)/C(=C/c1ccccc1)OC(C)=O |
| 199 to 203 | N#Cc1ccc(-c2ccc(-c3ccoc3)cc2)cc1 |
| 66 to 67.2 | CCOC(=O)c1cccc(O)c1O |
| 104 to 105 | CCOC(=O)C(Cl)C(=O)Nc1ccc(Cl)cc1 (stereo not drawn) |
| 104 to 107 | COc1cc(NC(=O)CCCCCN2CCN(C)CC2)c2nccc(C)c2c1 |
| 111 to 113 | CC1(C)CC(=O)C(S(=O)(=O)Cc2ccc(Cl)cc2)=C(O)C1 |
| 114 to 115 | CN1CCN(c2ccccc2C2=NC(C)(C)CO2)C(c2cccs2)C1 (stereo not drawn) |

| Structure (SMILES) | melting point [°C] |
| --- | --- |
| Cc1cc(C2=NOC(c3cc(Cl)cc(Cl)c3)(C(F)(F)F)C2)ccc1C(=O)NCc1ccccn1 (stereo not drawn) | 131 to 136 |
| c1coc(-c2ccc(-c3cn([C@H]4CN5CCC4CC5)nn3)s2)c1 | 180 |
| Nc1cccc(-c2ccc(CCN3CCN(C(=O)Cc4ccccc4)CC3)cc2)n1 | 135 to 137 |
| CCC(C)(C)OC(=O)OOC1CC(C)(C)N(C(C)=O)C(C)(C)C1 | 70 to 73 |
| CS(=O)(=O)OCCN(CCOS(C)(=O)=O)c1ccc([N+](=O)[O-])c(C(=O)O)c1[N+](=O)[O-] | 200 to 210 |
